For data set [1], the target named is T1, human EP4 (Homo sapiens, UniProt P35408).
T1 construct: expressed in transfected cells; host or cells: HEK293 cells transduced with EP4 BacMam baculovirus
In words: cAMP Gs functional assay (HTRF cAMP dynamic-2) in EP4-transfected HEK293 cells. It counts as cell-based. The settings on record: HEK293 cells transfected with EP4 BacMam virus; for EC50: 30 min at 37° C., HTRF cAMP, read-out: cAMP human EP4 pEC50 (converted); for cAMP human EP4 Emax: positive control PGE2. The protocol: Cloning, Baculovirus generation, large scale infection of HEK293 cells and membrane preparation: Human prostaglandin E2 receptor 4 (EP4) was cloned into pBacMam expression vector (GeneScript, UK). Transposition of EP4 DNA was performed using Invitrogen's Bac-to-Bac Baculovirus Expression Systems. P0 baculovirus was generated by transfecting SF9 Cells with bacmid DNA using Cellfectin II transfection reagent (ThermoFisher Scientific, UK). Following P0 generation P1 virus was then generated ready for large scale infection and membrane preparation. HEK293 cells were grown in DMEM (ThermoFisher Scientific, UK), supplemented with 10% heat inactivated fetal bovine serum (FBS). Cells were infected at a seeding density of 3.5 million cells/mL in 500 cm^3 flasks at 5% v/v EP4 Bacman. Expression was carried out over a 36 hour period at 37° C. with 5% CO2. The cells were removed using PBS and a cell scrapper. The cell culture was centrifuged at 2500 RPM for 10 mins at 4° C. The supernatant was then poured off and the pellet stored at −80° C. The pellet was defrosted and re-suspended in 15 mL of homogenising buffer (20 mM HEPES, 10 mM EDTA, pH 7.4). Then homogenised in mechanical homogeniser (VMR) for 10 seconds. The membrane was centrifuged in centrifuge tubes at 40,000 g for 15 mins at 4° C. The supernatant was poured away and re-suspended in 15 mL of homogenising buffer and homogenised for 20 seconds. The membrane was then centrifuged at 40,000 g for 45 mins at 4° C. The membrane was then re-suspended in 3 mL of storage buffer (20 mM HEPES, 0.1 mM EDTA, pH 7.4) mixing well. The resulting membranes were then stored at −80° C.
cAMP Gs Functional Assay: cAMP production following EP4 receptor activation was determined using the Homogeneous Time-Resolved Fluorescence (HTRF) cAMP dynamic-2 assay (Cisbio, France). HEK293 cells were transfected using a 0.5% EP4 Bacman virus for 36 hours, before dissociating the cells, and freezing at −150° C.
On the day of testing, increasing concentration of test compounds, alongside positive controls ([…] PGE2 (Tocris, Abingdon, UK)) and negative control (DMSO (Sigma-Aldrich, UK) were added to a ProxiPlate-384 Plus, White 384-shallow well Mircoplate, (PerkinElmer, USA) using the ECHO dispense.
Cells were defrosted in a water bath and resuspended in DMEM supplemented with 10% FBS before centrifuging at 1200 RPM for 5 mins to form a pellet. The pellet was resuspended in assay buffer (DMEM+0.5 mM IBMX (Tocris, Abingdon, UK)) to 0.5×10^6 cells/mL. Cell suspension, for a final assay concentration of 5000 cell/well was added using the multidrop to the pre-dispensed assay plate. The plate was then incubated at 37° C. for 30 mins, with 5% CO2. The cAMP production was determined as manufacturer's instructions, before plates were read on a PheraStar fluorescence plate reader (BMG LabTech, Germany).

Data set [2] in a line: Unidirectional Caco-2 cell permeability assay. Particulars: human, apical pH 6.5, basolateral pH 7.4, 1 hour, 37° C., n=2. It counts as in vitro ADME. The protocol: Caco-2 cells (ECACC) were seeded onto 24-well Transwell plates at 2×10^5 cells per well and used in confluent monolayers after a 21 day culture at 37° C. under 500 CO2. Test compounds were incubated at 10 μM, 0.2% DMSO final, n=2 in assay buffer (Hanks balanced salt solution supplemented with 25 mM HEPES, adjusted to pH 6.5). Hanks balanced salt solution supplemented with 25 mM HEPES, adjusted to pH 7.4 (0.2% DMSO final) was used for the basolateral chamber (as receiver).
Incubations were performed at 37° C., with samples removed from both donor and acceptor chambers at T=0 and 1 hour and compound analysed by mass spectrometry (LC-MS/MS) including an analytical internal standard ([…] carbamazepine).
Apparent permeability (Papp) values are shown in Table 3 and were determined from the relationship:
Where V is the volume of each Transwell compartment (apical 125 μL, basolateral 600 μL), and concentrations are the relative MS responses for compound (normalized to internal standard) in the donor chamber before incubation and acceptor chamber at the end of the incubation Area=area of cells exposed for drug transfer (0.33 cm^2).
Lucifer Yellow (LY) was added to the apical buffer in all wells to assess viability of the cell layer. As LY cannot freely permeate lipophilic barriers, a high degree of LY transport indicates poor integrity of the cell layer and wells with a LY Papp>10×10^−6 cm/s were rejected.
Compound recovery from the wells was determined from MS responses (normalized to internal standard) in donor and acceptor chambers at the end of incubation compared to response in the donor chamber pre-incubation.

SMILES strings stand for the structures.

T1 sequence (P35408 whole entry): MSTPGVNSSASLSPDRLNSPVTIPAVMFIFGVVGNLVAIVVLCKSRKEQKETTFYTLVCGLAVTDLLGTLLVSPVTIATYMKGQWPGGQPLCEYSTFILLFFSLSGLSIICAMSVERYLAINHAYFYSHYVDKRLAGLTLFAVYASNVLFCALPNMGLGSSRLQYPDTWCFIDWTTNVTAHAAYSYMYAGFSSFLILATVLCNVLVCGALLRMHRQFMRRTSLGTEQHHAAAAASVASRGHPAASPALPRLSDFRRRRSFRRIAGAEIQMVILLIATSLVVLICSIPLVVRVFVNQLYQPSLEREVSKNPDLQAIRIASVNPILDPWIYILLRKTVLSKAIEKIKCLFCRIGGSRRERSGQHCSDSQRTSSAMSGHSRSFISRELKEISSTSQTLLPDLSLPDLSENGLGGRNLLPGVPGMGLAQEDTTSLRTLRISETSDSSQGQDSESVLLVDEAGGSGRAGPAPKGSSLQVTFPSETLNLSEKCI

As for `Cc1cc(S(N)(=O)=O)ccc1-c1cc(O)cc(CN2CCC[C@@H]2C(=O)N[C@@H](C)c2ccc(C(=O)O)cc2)c1` [Example 20, 4-((S)-1-((R)-1-((5-hydroxy-2′-methyl-4′-sulfamoyl-[1,1′-biphenyl]-3-yl)methyl)pyrrolidine-2-carboxamido)ethyl)benzoic acid], in data set [1], the EC50 was 0.631 nM and the cAMP human EP4 Emax was found to be 98%. In data set [2], this molecule had a Papp A→B at 1 h, 10 μM below 0.1 ×10⁻⁶ cm/s.

As for `C[C@H](NC(=O)[C@H]1CCCN1Cc1cccc(-c2ccc(C(N)=O)cc2O)c1)c1ccc(C(=O)O)cc1` [Example 11, 4-((S)-1-((R)-1-((4′-carbamoyl-2′-hydroxy-[1,1′-biphenyl]-3-yl)methyl)pyrrolidine-2-carboxamido)ethyl)benzoic acid], in data set [1], the EC50 is 20 nM and the cAMP human EP4 Emax came to 92%. In addition, the Papp A→B at 1 h, 10 μM in data set [2] was 0.18 ×10⁻⁶ cm/s.

Consider `Cc1cc(C(N)=O)ccc1-c1cc(CN2CCC[C@@H]2C(=O)N[C@@H](C)c2ccc(C(=O)O)cc2)c[n+]([O-])c1` [Example 26, 3-(4-carbamoyl-2-methylphenyl)-5-(((R)-2-(((S)-1-(4-carboxyphenyl)ethyl)carbamoyl)pyrrolidin-1-yl)methyl)pyridine 1-oxide], for which, in data set [1], the EC50 was above 1000 nM.

On to `Cc1cc(C(N)=O)ccc1-c1cc(O)cc(CN2CCC[C@@H]2C(=O)N[C@@H](C)c2ccc(C(=O)O)cc2)c1` [Example 13], for which, in data set [1], the EC50 was 0.251 nM and the cAMP human EP4 Emax worked out at 99%. Besides, the Papp A→B at 1 h, 10 μM in data set [2] came out at 0.34 ×10⁻⁶ cm/s.

Take `Cc1cc(OS(N)(=O)=O)ccc1-c1cccc(CN2CCC[C@@H]2C(=O)N[C@@H](C)c2ccc(C(=O)O)cc2)c1` [Example 10]: in data set [1], the EC50 was 2 nM and the cAMP human EP4 Emax was found to be 96%. The molecule also showed an apical-to-basolateral permeability (Papp A→B) at 1 h, 10 μM in data set [2] of 1.84 ×10⁻⁶ cm/s.

Take `Cc1cc(C(N)=O)ccc1-c1cccc(CN2C[C@H](O)C[C@@H]2C(=O)N[C@@H](C)c2ccc(C(=O)O)cc2)c1` [Example 6, 4-((S)-1-((2R,4R)-1-((4′-carbamoyl-2′-methyl-[1,1′-biphenyl]-3-yl)methyl)-4-hydroxypyrrolidine-2-carboxamido)ethyl)benzoic acid]: in data set [1], the EC50 is 501 nM and the cAMP human EP4 Emax came to 91%. Also, in data set [2], the Papp A→B at 1 h, 10 μM came out at 0.85 ×10⁻⁶ cm/s.

On to `Cc1cc(C(N)=O)ccc1-c1cccc(CN2CCC[C@@H]2C(=O)NC2(c3ccc(C(=O)O)cc3)CC2)c1` [Example 31, (R)-4-(1-(1-((4′-carbamoyl-2′-methyl-[1,1′-biphenyl]-3-yl)methyl)pyrrolidine-2-carboxamido)cyclopropyl)benzoic acid], for which, in data set [1], the EC50 was 0.02 nM and the cAMP human EP4 Emax is 98%. In data set [2], the Papp A→B at 1 h, 10 μM worked out at 0.45 ×10⁻⁶ cm/s.

With `C[C@H](NC(=O)[C@H]1CCCN1Cc1cccc(-c2ccc(S(N)(=O)=O)cc2O)c1)c1ccc(C(=O)O)cc1` [Example 22], in data set [1], the EC50 was 126 nM and the cAMP human EP4 Emax was determined as 85%. Also, the apical-to-basolateral permeability (Papp A→B) at 1 h, 10 μM in data set [2] is below 0.1 ×10⁻⁶ cm/s.

In the case of `C[C@H](NC(=O)[C@H]1CCCN1Cc1ccc(O)c(-c2ccc(S(N)(=O)=O)cc2)c1)c1ccc(C(=O)O)cc1` [Example 19], in data set [1], the EC50 was 100 nM and the cAMP human EP4 Emax was 90%. In addition, the Papp A→B at 1 h, 10 μM in data set [2] was below 0.12 ×10⁻⁶ cm/s.

With `Cc1cc(O)ccc1-c1cc(O)cc(CN2CCC[C@@H]2C(=O)N[C@@H](C)c2ccc(C(=O)O)c(O)c2)c1` [Example 35, 4-((S)-1-((R)-1-((4′,5-dihydroxy-2′-methyl-[1,1′-biphenyl]-3-yl)methyl)pyrrolidine-2-carboxamido)ethyl)-2-hydroxybenzoic acid], in data set [1], the EC50 is 0.0501 nM and the cAMP human EP4 Emax was found to be 97%. The molecule also yielded a Papp A→B at 1 h, 10 μM in data set [2] below 0.1 ×10⁻⁶ cm/s.

`Cc1cc(S(N)(=O)=O)ccc1-c1cccc(CN2CCC[C@@H]2C(=O)NCc2ccc(C(=O)O)c(O)c2)c1` [Example 16, (R)-2-hydroxy-4-((1-((2′-methyl-4′-sulfamoyl-[1,1′-biphenyl]-3-yl)methyl)pyrrolidine-2-carboxamido)methyl)benzoic acid]: in data set [1], the EC50 is 20 nM and the cAMP human EP4 Emax is 98%. The Papp A→B at 1 h, 10 μM in data set [2] is 0.17 ×10⁻⁶ cm/s.

Turning to `C[C@H](NC(=O)[C@H]1CCCN1Cc1cccc(-c2ccc(O)cc2)c1)c1ccc(C(=O)O)cc1` [Example 7, 4-((S)-1-((R)-1-((4′-hydroxy-[1,1′-biphenyl]-3-yl)methyl)pyrrolidine-2-carboxamido)ethyl)benzoic acid], in data set [1], the EC50 was above 10000 nM. Further, the apical-to-basolateral permeability (Papp A→B) at 1 h, 10 μM in data set [2] came out at 7.71 ×10⁻⁶ cm/s.

In the case of `Cc1cc(O)ccc1-c1cccc(CN2CCC[C@@H]2C(=O)N[C@@H](C)c2ccc(C(=O)O)cc2)c1` [Example 1], in data set [1], the EC50 is 2 nM and the cAMP human EP4 Emax is 81%. The molecule also came in with an apparent permeability from apical to basolateral (Papp A→B) at 1 h, 10 μM in data set [2] of 14.5 ×10⁻⁶ cm/s.

As to `Cc1cc(S(N)(=O)=O)ccc1-c1cccc(CN2CC3CC2(C(=O)NC2(c4ccc(C(=O)O)cc4)CC2)C3)c1` [Example 27, 4-(1-(2-((2′-methyl-4′-sulfamoyl-[1,1′-biphenyl]-3-yl)methyl)-2-azabicyclo[2.1.1]hexane-1-carboxamido)cyclopropyl)benzoic acid], in data set [1], the EC50 is 6.31 nM and the cAMP human EP4 Emax amounted to 85%. The same molecule gave an apparent permeability from apical to basolateral (Papp A→B) at 1 h, 10 μM in data set [2] below 0.28 ×10⁻⁶ cm/s.

In the case of `Cc1cc(C(N)=O)ccc1-c1cccc(CN2CC3CC2(C(=O)N[C@@H](C)c2ccc(C(=O)O)cc2)C3)c1` [Example 28, (S)-4-(1-(2-((4′-carbamoyl-2′-methyl-[1,1′-biphenyl]-3-yl)methyl)-2-azabicyclo[2.1.1]hexane-1-carboxamido)ethyl)benzoic acid], in data set [1], the EC50 was 25.1 nM and the cAMP human EP4 Emax is 76%. This molecule also displayed a Papp A→B at 1 h, 10 μM in data set [2] below 0.12 ×10⁻⁶ cm/s.

For the molecule `Cc1cc(C(N)=O)ccc1-c1cccc(CN2CCC[C@@H]2C(=O)N[C@@H](C)c2ccc(C(=O)O)c(O)c2)c1` [Example 17, 4-((S)-1-((R)-1-((4′-carbamoyl-2′-methyl-[1,1′-biphenyl]-3-yl)methyl)pyrrolidine-2-carboxamido)ethyl)-2-hydroxybenzoic acid], in data set [1], the EC50 was 63.1 nM and the cAMP human EP4 Emax was 97%.

As for `Cc1cc(S(N)(=O)=O)ccc1-c1cccc(CN2CC3CC2(C(=O)N[C@@H](C)c2ccc(C(=O)O)cc2)C3)c1` [Example 32, (S)-4-(1-(2-((2′-methyl-4′-sulfamoyl-[1,1′-biphenyl]-3-yl)methyl)-2-azabicyclo[2.1.1]hexane-1-carboxamido)ethyl)benzoic acid], in data set [1], the EC50 is 0.398 nM and the cAMP human EP4 Emax came out at 90%.

For `Cc1cc(C(N)=O)ccc1-c1cncc(CN2C[C@H](O)C[C@@H]2C(=O)N[C@@H](C)c2ccc(C(=O)O)cc2)c1` [Example 25, 4-((S)-1-((2R,4R)-1-((5-(4-carbamoyl-2-methylphenyl)pyridin-3-yl)methyl)-4-hydroxypyrrolidine-2-carboxamido)ethyl)benzoic acid], in data set [1], the EC50 was 1260 nM and the cAMP human EP4 Emax worked out at 91%.

The values above are taken from patent US20260042745A1, “PYRROLIDINE-2-CARBOXAMIDE DERIVATIVES AS PROSTAGLANDIN E2 RECEPTOR 4 (EP4) AGONISTS FOR THE TREATMENT OF GASTROINTESTINAL AND PULMONARY DISEASES” (NXERA PHARMA UK LIMITED, priority 2022, published 2026).
